Experimental data published in US20110201818A1, “POLO-LIKE KINASE INHIBITORS” (TAKEDA PHARMACEUTICAL COMPANY LIMITED, priority 2007, published 2011).

target: T1, human PLK1 (Homo sapiens, UniProt P53350); test: PLK1 in vitro enzymatic activity assay (phosphorylation of alpha casein by recombinant PLK1); assay type: biochemical; settings: recombinant FLAG-tagged PLK1, alpha casein substrate, 500 nmol/L ATP, 40 min at room temperature; read-out: pIC50 (PLK1) (converted)
T1 construct: FLAG (DYKDDDDK) (N); made in house; host or cells: Sf21 insect cells, recombinant baculovirus (pFASTBAC1, Bac-to-Bac)
T1 sequence (P53350 with tags, fused parts or gaps): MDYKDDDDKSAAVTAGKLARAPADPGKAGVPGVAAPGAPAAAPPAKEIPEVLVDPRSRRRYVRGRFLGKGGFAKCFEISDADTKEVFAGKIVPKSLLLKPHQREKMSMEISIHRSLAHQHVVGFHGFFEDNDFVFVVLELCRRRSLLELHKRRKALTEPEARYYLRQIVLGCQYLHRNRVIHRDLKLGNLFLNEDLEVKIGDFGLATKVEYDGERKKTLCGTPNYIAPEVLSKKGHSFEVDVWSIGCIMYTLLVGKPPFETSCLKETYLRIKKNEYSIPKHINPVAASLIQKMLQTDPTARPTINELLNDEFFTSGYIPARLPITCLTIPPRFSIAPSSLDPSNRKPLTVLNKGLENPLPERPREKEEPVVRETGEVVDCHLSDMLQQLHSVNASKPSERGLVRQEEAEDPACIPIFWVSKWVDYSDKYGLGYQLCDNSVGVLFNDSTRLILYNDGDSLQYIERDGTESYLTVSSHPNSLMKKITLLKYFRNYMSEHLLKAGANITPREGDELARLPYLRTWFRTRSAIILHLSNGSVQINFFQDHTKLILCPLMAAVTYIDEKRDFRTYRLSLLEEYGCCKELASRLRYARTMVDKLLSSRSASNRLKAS
Method: PCR was performed using the vector as a template. […] After XbaI and XhoI digestion of the PCR product, the fragment was subcloned into pFASTBAC1 (Invitrogen, USA). Recombinant baculoviruses were prepared according to the procedure of the Bac-to-Bac baculovirus expression system (Invitrogen, USA). Sf21 cells were purchased from Invitrogen and grown in Sf-900 II SFM medium containing 10% fetal bovine serum, 50 μg/mL gentamicin and 0.1% pluronic F-68 (Invitrogen, USA) at 28° C. For preparation of PLK1 enzyme, Sf21 cells were infected with recombinant baculoviruses and cultured at 28° C. for 72 h.
The inhibition of PLK1 by the compounds was determined with the following assay that measures the phosphorylation of alpha casein by recombinant PLK1. Kinase reactions were performed at room temperature for 40 min in the kinase reaction buffer (25 mmol/L HEPES, pH 7.5, 10 mmol/L magnesium acetate, 1 mmol/L dithiothreitol) containing 50 ng PLK1 enzyme, 0.1 μCi [γ-^32P]ATP, 500 nmol/L ATP and 3 μg alpha casein (MP Biomedicals Inc., USA) in a final volume of 50 μL. The incubation was terminated by the addition of 10% trichloroacetic acid (Wako, Japan). Phosphorylated proteins were filtrated in GF/C filter plates (Packard, USA) with a Cell harvester (Packard, USA) and washed out free [γ-^32P]-ATP with 250 mmol/L phosphoric acid. Then, the plates were air dried for 60 min at 45° C., followed by the addition of 20 μL of MicroScint-O (Packard, USA). The radioactivity was counted by a Top-count scintillation counter (Packard, USA).

`CCN1CC(NC(=O)c2ccc(Nc3ncc4c(n3)N(C3CCCCC3)CC(F)(F)C(=O)N4C)c(OC)c2)C1` [Compound 126, 4-(9-cyclohexyl-7,7-difluoro-5-methyl-6-oxo-6,7,8,9-tetrahydro-5H-pyrimido[4,5-b][1,4]diazepin-2-ylamino)-N-(1-ethylazetidin-3-yl)-3-methoxybenzamide] and `COc1cc(C(=O)NC2CN(C)C2)ccc1Nc1ncc2c(n1)N(C1CCCCC1)CC(F)(F)C(=O)N2C` [Compound 35, 4-(9-Cyclohexyl-7,7-difluoro-5-methyl-6-oxo-6,7,8,9-tetrahydro-5H-pyrimido[4,5-b][1,4]diazepin-2-ylamino)-3-methoxy-N-(1-methylazetidin-3-yl)benzamide] cannot be ordered by IC50: over 2 nM for the first, at most 2 nM for the second.

`C=C[C@@]1(F)CN(C2CCCC2)c2nc(Nc3ccc(C(=O)NC4CCN(CC)CC4)cc3OC)ncc2N(C)C1=O` [Compound 105, (R)-4-(9-cyclopentyl-7-fluoro-5-methyl-6-oxo-7-vinyl-6,7,8,9-tetrahydro-5H-pyrimido[4,5-b][1,4]diazepin-2-ylamino)-N-(1-ethylpiperidin-4-yl)-3-methoxybenzamide] and `COc1cc(C(=O)NC2CCN(C)CC2)ccc1Nc1ncc2c(n1)N(C1CCCC1)CC(C)(F)C(=O)N2C` (centres unmarked) [Compound 87, 4-(9-cyclopentyl-7-fluoro-5,7-dimethyl-6-oxo-6,7,8,9-tetrahydro-5H-pyrimido[4,5-b][1,4]diazepin-2-ylamino)-3-methoxy-N-(1-methylpiperidin-4-yl)benzamide] cannot be ordered by IC50: at most 2 nM for the first, at most 2 nM for the second.

`COc1cc(C(=O)N[C@@H]2CCCNC2)c(F)cc1Nc1ncc2c(n1)N(C1CCCC1)CC(F)(F)C(=O)N2C` [Compound 119, (R)-4-(9-cyclopentyl-7,7-difluoro-5-methyl-6-oxo-6,7,8,9-tetrahydro-5H-pyrimido[4,5-b][1,4]diazepin-2-ylamino)-2-fluoro-5-methoxy-N-(piperidin-3-yl)benzamide] and `COc1cc(C(=O)NC2CNC2)c(F)cc1Nc1ncc2c(n1)N(C1CCCC1)CC(F)(F)C(=O)N2C` [Compound 130, N-(azetidin-3-yl)-4-(9-cyclopentyl-7,7-difluoro-5-methyl-6-oxo-6,7,8,9-tetrahydro-5H-pyrimido[4,5-b][1,4]diazepin-2-ylamino)-2-fluoro-5-methoxybenzamide] cannot be ordered by IC50: over 2 nM for the first, at most 2 nM for the second.

`COc1cc(C(=O)NC2CC3CCC(C2)N3C)ccc1Nc1ncc2c(n1)N(C1CCCCC1)CC(F)(F)C(=O)N2C` (centres unmarked) [Compound 51, 4-(9-cyclohexyl-7,7-difluoro-5-methyl-6-oxo-6,7,8,9-tetrahydro-5H-pyrimido[4,5-b][1,4]diazepin-2-ylamino)-3-methoxy-N-(8-methyl-8-azabicyclo[3.2.1]octan-3-yl)benzamide] and `COc1cc(C(=O)NC2CCN(C)CC2)ccc1Nc1ncc2c(n1)N(C1CCCCC1)CC(F)(F)C(=O)N2C` [Compound 33, 4-(9-cyclohexyl-7,7-difluoro-5-methyl-6-oxo-6,7,8,9-tetrahydro-5H-pyrimido[4,5-b][1,4]diazepin-2-ylamino)-3-methoxy-N-(1-methylpiperidin-4-yl)benzamide] cannot be ordered by IC50: at most 2 nM for the first, at most 2 nM for the second.

`CN1CCC(NC(=O)c2ccc(Nc3ncc4c(n3)N(C3CCCC3)CC(F)(F)C(=O)N4C)c(F)c2)CC1` [Compound 22, 4-(9-Cyclopentyl-7,7-difluoro-5-methyl-6-oxo-6,7,8,9-tetrahydro-5H-pyrimido[4,5-b][1,4]diazepin-2-ylamino)-3-fluoro-N-(1-methylpiperidin-4-yl)benzamide] and `COc1cc(C(=O)NC2CCN(C)CC2)ccc1Nc1ncc2c(n1)N(C1CC[C@@H](C)C1)CC(F)(F)C(=O)N2C` (stereo partly drawn) [Compound 83, 4-(7,7-difluoro-5-methyl-9-((3R)-3-methylcyclopentyl)-6-oxo-6,7,8,9-tetrahydro-5H-pyrimido[4,5-b][1,4]diazepin-2-ylamino)-3-methoxy-N-(1-methylpiperidin-4-yl)benzamide] cannot be ordered by IC50: at most 2 nM for the first, at most 2 nM for the second.

`COc1cc(C(=O)N2CCN(CC3CC3)CC2)c(F)cc1Nc1ncc2c(n1)N(C1CCCC1)CC(F)(F)C(=O)N2C` [Compound 135, 9-cyclopentyl-2-(4-(4-(cyclopropylmethyl)piperazine-1-carbonyl)-5-fluoro-2-methoxyphenylamino)-7,7-difluoro-5-methyl-8,9-dihydro-5H-pyrimido[4,5-b][1,4]diazepin-6(7H)-one] and `COc1cc(C(=O)N2CCN(CC3CC3)CC2)ccc1Nc1ncc2c(n1)N(C1CCCC1)CC(F)(F)C(=O)N2C` [Compound 134, 9-cyclopentyl-2-(4-(4-(cyclopropylmethyl)piperazine-1-carbonyl)-2-methoxyphenylamino)-7,7-difluoro-5-methyl-8,9-dihydro-5H-pyrimido[4,5-b][1,4]diazepin-6(7H)-one] cannot be ordered by IC50: over 2 nM for the first, over 2 nM for the second.

`C=C[C@@]1(F)CN(C2CCCC2)c2nc(Nc3cc(F)c(C(=O)NC4CCN(C)CC4)cc3OC)ncc2N(C)C1=O` [Compound 113, (R)-4-(9-cyclopentyl-7-fluoro-5-methyl-6-oxo-7-vinyl-6,7,8,9-tetrahydro-5H-pyrimido[4,5-b][1,4]diazepin-2-ylamino)-2-fluoro-5-methoxy-N-(1-methylpiperidin-4-yl)benzamide] and `COc1cc(C(=O)O)c(F)cc1Nc1ncc2c(n1)N(C1CCCC1)CC(F)(F)C(=O)N2C` [Compound 31, 4-(9-Cyclopentyl-7,7-difluoro-5-methyl-6-oxo-6,7,8,9-tetrahydro-5H-pyrimido[4,5-b][1,4]diazepin-2-ylamino)-2-fluoro-5-methoxybenzoic acid] cannot be ordered by IC50: at most 2 nM for the first, at most 2 nM for the second.

`COc1cc(C(=O)NC[C@H](C)O)ccc1Nc1ncc2c(n1)N(C1CCCCC1)CC(F)(F)C(=O)N2C` [Compound 63, (S)-4-(9-cyclohexyl-7,7-difluoro-5-methyl-6-oxo-6,7,8,9-tetrahydro-5H-pyrimido[4,5-b][1,4]diazepin-2-ylamino)-N-(2-hydroxypropyl)-3-methoxybenzamide] and `COc1cc(C(=O)NC2CN(C(C)C)C2)ccc1Nc1ncc2c(n1)N(C1CCCCC1)CC(F)(F)C(=O)N2C` [Compound 125, 4-(9-cyclohexyl-7,7-difluoro-5-methyl-6-oxo-6,7,8,9-tetrahydro-5H-pyrimido[4,5-b][1,4]diazepin-2-ylamino)-N-(1-isopropylazetidin-3-yl)-3-methoxybenzamide] cannot be ordered by IC50: at most 2 nM for the first, at most 2 nM for the second.

`COc1cc(C(=O)N2CCN(C)CC2)ccc1Nc1ncc2c(n1)N(C1CCCCC1)CC(F)(F)C(=O)N2C` [Compound 57, 9-cyclohexyl-7,7-difluoro-2-(2-methoxy-4-(4-methylpiperazine-1-carbonyl)-phenylamino)-5-methyl-8,9-dihydro-5H-pyrimido[4,5-b][1,4]diazepin-6(7H)-one] and `COc1cc(C(=O)NC2CCOCC2)ccc1Nc1ncc2c(n1)N(C1CCCCC1)CC(F)(F)C(=O)N2C` [Compound 66, 4-(9-cyclohexyl-7,7-difluoro-5-methyl-6-oxo-6,7,8,9-tetrahydro-5H-pyrimido[4,5-b][1,4]diazepin-2-ylamino)-3-methoxy-N-(tetrahydro-2H-pyran-4-yl)benzamide] cannot be ordered by IC50: over 2 nM for the first, at most 2 nM for the second.

`COc1cc(C(=O)NC2CCCNCC2)ccc1Nc1ncc2c(n1)N(C1CCCC1)CC(F)(F)C(=O)N2C` (centres unmarked) [Compound 14, N-(Azepan-4-yl)-4-(9-cyclopentyl-7,7-difluoro-5-methyl-6-oxo-6,7,8,9-tetrahydro-5H-pyrimido[4,5-b][1,4]diazepin-2-ylamino)-3-methoxybenzamide] and `COc1cc(C(=O)NC2CCN(CC(=O)N(C)C)CC2)ccc1Nc1ncc2c(n1)N(C1CCCC1)CC(F)(F)C(=O)N2C` [Compound 115, 4-(9-cyclopentyl-7,7-difluoro-5-methyl-6-oxo-6,7,8,9-tetrahydro-5H-pyrimido[4,5-b][1,4]diazepin-2-ylamino)-N-(1-(2-(dimethylamino)-2-oxoethyl)piperidin-4-yl)-3-methoxybenzamide] cannot be ordered by IC50: at most 2 nM for the first, over 2 nM for the second.

`CN1C(=O)C(F)(F)CN(C2CCCC2)c2nc(Nc3ccc4c(c3)NC(=O)CO4)ncc21` [Compound 18, 6-(9-cyclopentyl-7,7-difluoro-5-methyl-6-oxo-6,7,8,9-tetrahydro-5H-pyrimido[4,5-b][1,4]diazepin-2-ylamino)-2H-benzo[b][1,4]oxazin-3(4H)-one] and `CN1C(=O)C(F)(F)CN(C2CCCC2)c2nc(Nc3ccc4[nH]ccc4c3)ncc21` [Compound 20, 2-(1H-Indol-5-ylamino)-9-cyclopentyl-7,7-difluoro-5-methyl-8,9-dihydro-5H-pyrimido[4,5-b][1,4]diazepin-6(7H)-one] cannot be ordered by IC50: over 2 nM for the first, over 2 nM for the second.

`COc1cc(C(=O)NC2CCN(C(=O)CN3CCCC3)CC2)ccc1Nc1ncc2c(n1)N(C1CCCC1)CC(F)(F)C(=O)N2C` [Compound 12, 4-(9-cyclopentyl-7,7-difluoro-5-methyl-6-oxo-6,7,8,9-tetrahydro-5H-pyrimido[4,5-b][1,4]diazepin-2-ylamino)-3-methoxy-N-(1-(2-(pyrrolidin-1-yl)acetyl)piperidin-4-yl)benzamide] gave an IC50 of over 2 nM.
